Molecular target: T1, Bll1HypBA1 (Bifidobacterium longum, UniProt E8MGH8)
T1 construct: gene hypBA1; GH127 enzyme prepared as in earlier reports; homodimer
T1 sequence (E8MGH8 1-658): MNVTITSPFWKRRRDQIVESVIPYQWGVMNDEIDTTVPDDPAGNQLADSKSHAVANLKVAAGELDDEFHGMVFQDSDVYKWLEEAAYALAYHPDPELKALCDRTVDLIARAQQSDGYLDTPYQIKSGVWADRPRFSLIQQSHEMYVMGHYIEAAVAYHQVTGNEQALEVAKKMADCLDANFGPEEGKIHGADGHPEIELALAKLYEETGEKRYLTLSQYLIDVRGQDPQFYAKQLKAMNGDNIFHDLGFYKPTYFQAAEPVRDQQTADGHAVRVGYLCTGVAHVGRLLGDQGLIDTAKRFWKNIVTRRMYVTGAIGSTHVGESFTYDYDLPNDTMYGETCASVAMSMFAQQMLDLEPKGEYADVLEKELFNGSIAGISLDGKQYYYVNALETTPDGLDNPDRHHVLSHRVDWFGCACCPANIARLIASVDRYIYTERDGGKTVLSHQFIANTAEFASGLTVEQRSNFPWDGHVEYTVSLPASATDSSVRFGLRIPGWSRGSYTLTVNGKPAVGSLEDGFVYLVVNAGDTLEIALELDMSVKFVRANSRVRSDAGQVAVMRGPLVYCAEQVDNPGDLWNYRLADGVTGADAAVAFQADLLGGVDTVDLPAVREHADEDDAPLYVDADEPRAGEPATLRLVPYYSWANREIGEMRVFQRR
Assay: TLC, released L-arabinose
Assay type: biochemical
Details: 50 mM sodium acetate pH 5.5; 37 °C; 16 h

SMILES | TLC, released L-arabinose
CO[C@@H]1O[C@@H](CO)[C@H](O)[C@H]1O[C@H]1O[C@@H](CO)[C@H](O)[C@H]1O [β2, Araf-β1,2-Araf-α-OMe] | Conversely, Bll1HypBA1 completely hydrolyzed these substrates
CO[C@@H]1O[C@@H](CO[C@H]2O[C@@H](CO)[C@H](O)[C@H]2O)[C@H](O)[C@H]1O [β5, Araf-β1,5-Araf-α-OMe] | Conversely, Bll1HypBA1 completely hydrolyzed these substrates

Source: PMC10850190, “Bifidobacterial GH146 β-L-arabinofuranosidase for the removal of β1,3-L-arabinofuranosides on plant glycans” (Applied Microbiology and Biotechnology, 2024)
